Source: patent publication US20160115540A1, “PRODRUGS AND DRUGS” (Biogen MA Inc., priority 2013, published 2016)
Structures can show the parent of a compound that is named as a salt.

Tested on: liver
Experiment: Transcriptional profiling on Affymetrix GeneChips, single dose, naïve mice: liver
Assay type: in vivo, C57BL/6 mice
Settings: for Number of differentially expressed genes identified: Liver: Naïve, Single Dose, 100 mpk, vs Vehicle
Method: Treated mice were sacrificed at 2, 7, or 12 hours. Tissues (liver, spleen, kidney, jejunum, cortex, hippocampus, striatum and whole blood) were collected and analyzed by transcriptional profiling on mouse Affymetrix GeneChips.
Tissues (liver, spleen, kidney, jejunum, cortex, hippocampus, striatum and whole blood) were collected and analyzed by transcriptional profiling on mouse Affymetrix GeneChips.
Animals were exposed to CO2 and whole blood collected via cardiac puncture. Two 100 μl aliquots of whole blood were collected in 1.5 mL microcentrifuge tubes and snap frozen in liquid nitrogen. Peripheral (liver, spleen, kidney and jejunum) and CNS brain (cerebellum, hippocampus, striatum and cortex) tissues were harvested and snap frozen in liquid nitrogen, with special care taken to collect tissues of similar size and from the same location. All samples were stored at −80° C. until RNA extraction was conducted.
For RNA preparation, frozen tissues were placed in 2 mL RNAse-free 96-well blocks with 1.5 mL QIAzol Lysis Reagent (QIAgen) and a 3.2 mm stainless steel bead (BioSpec Products, Bartlesville, Okla.). Tissues were disrupted for four cycles of 45 seconds in a Mini-Beadbeater (Biospec Products). RNA was extracted in chloroform and the aqueous phase was mixed with an equal volume of 70% ethanol. Extracted RNA was applied to RNeasy 96 plates and purified by the spin method according to the manufacturer's protocol (RNeasy 96 Universal Tissue Protocol, QIAgen, Hilden Germany).
Automated sample amplifications and biotin labelings were carried out using the NuGEN Ovation RNA Amplification system V2 (Cat #3100), Ovation WB reagent (Cat #1300) and Encore Biotin module (Cat #4200) (NuGEN Technologies, Inc, San Carlos, Calif.) according to manufacturer's recommendations using an Arrayplex automated liquid handler (Beckman Coulter, Indianapolis, Ind.). Two micrograms of biotin labeled sscDNA probe were hybridized to Affymetrix GeneChip Affymetrix HT_MG-430_PM plate arrays with modified conditions as described in Allaire et al. Washing and staining of the hybridized arrays were completed as described in the GeneChip Expression analysis technical manual for HT plate arrays using the Genechip® Array Station (Affymetrix, Santa Clara, Calif.) with modifications as described in Allaire et al. The processed GeneChip® plate arrays were scanned using GeneTitan scanner (Affymetrix, Santa Clara, Calif.).
Affymetrix scans were subject to quality control (QC) measures. These tests included a visual inspection of the distribution of raw signal intensities and an assessment of RNA degradation, relative log expression (RLE), and normalized unsealed standard error (NUSE). All sample scans that passed these QC metrics were included in the analysis.
All CEL files were subjected to GC-content-based Robust Multi-array Average (GCRMA) normalization (version 2.20.0) (Irizarry R A, et al. Nucleic Acids Res 2003; 31:e15; Li C, et al. Genome Biol 2001; 2:[…]0032). Expression levels were log (base 2) transformed.
All calculations and analyses were carried out using R (version 2.11.1) and Bioconductor computational tools (Gentleman R. Springer Science+Business Media 2005).

[1] = liver, 100 mg/kg, 2 hr, vs matched vehicle controls

COC(=O)/C=C/C(=O)O [MMF, monomethyl fumarate]
FC 1437867_PM_at (no gene symbol) (LIVER, 100MMF-vs-Veh, 2 h): 1.50
FC 1444516_PM_at (no gene symbol) (LIVER, 100MMF-vs-Veh, 2 h): 2.19
FC 1447411_PM_at (no gene symbol) (LIVER, 100MMF-vs-Veh, 2 h): 2.81
FC 9130221J17Rik (1443159_PM_at) (LIVER, 100MMF-vs-Veh, 2 h): 1.57
FC Abcc1 (1452233_PM_at) (LIVER, 100MMF-vs-Veh, 2 h): 1.86
FC Akr1b8 (1448894_PM_at) (LIVER, 100MMF-vs-Veh, 2 h): 2.27
FC Caprin1 (1448348_PM_at) (LIVER, 100MMF-vs-Veh, 2 h): −1.56
FC Clec4d (1420804_PM_s_at) (LIVER, 100MMF-vs-Veh, 2 h): 2.05
FC Csnk2a1 (1419038_PM_a_at) (LIVER, 100MMF-vs-Veh, 2 h): −1.62
FC Figf (1438953_PM_at) (LIVER, 100MMF-vs-Veh, 2 h): 2.25
FC Figf (1438954_PM_x_at) (LIVER, 100MMF-vs-Veh, 2 h): 1.79
FC Fxr1 (1452247_PM_at) (LIVER, 100MMF-vs-Veh, 2 h): −1.53
FC Gclc (1424296_PM_at) (LIVER, 100MMF-vs-Veh, 2 h): 1.72
FC Gclc (1455959_PM_s_at) (LIVER, 100MMF-vs-Veh, 2 h): 1.64
FC Hmox1 1448239_PM_at (LIVER, 100MMF-vs-Veh, 2 h): 2.41
FC Meis2 (1440091_PM_at) (LIVER, 100MMF-vs-Veh, 2 h): −1.67
FC Pgd (1436771_PM_x_at) (LIVER, 100MMF-vs-Veh, 2 h): 1.61
FC Pgd (1437380_PM_x_at) (LIVER, 100MMF-vs-Veh, 2 h): 1.65
FC Ppfibp2 (1417801_PM_a_at) (LIVER, 100MMF-vs-Veh, 2 h): 2.55
FC Prpf38b (1455016_PM_at) (LIVER, 100MMF-vs-Veh, 2 h): −1.53
FC Srxn1 (1419942_PM_at) (LIVER, 100MMF-vs-Veh, 2 h): 1.68
FC Srxn1 (1426875_PM_s_at) (LIVER, 100MMF-vs-Veh, 2 h): 1.63
FC Srxn1 (1451680_PM_at) (LIVER, 100MMF-vs-Veh, 2 h): 1.55
FC 2010003K11Rik (1424626_PM_at) (LIVER, 100MMF-vs-Veh, 7 h): 2.20
FC 4930588G05Rik (1430175_PM_at) (LIVER, 100MMF-vs-Veh, 7 h): −1.76
FC Akr1b8 (1448894_PM_at) (LIVER, 100MMF-vs-Veh, 7 h): 1.75
FC Bmp6 (1450759_PM_at) (LIVER, 100MMF-vs-Veh, 7 h): 1.65
FC Cda (1427357_PM_at) (LIVER, 100MMF-vs-Veh, 7 h): 1.92
FC Clec4n (1419627_PM_s_at) (LIVER, 100MMF-vs-Veh, 7 h): 2.40
FC Erc2 (1434582_PM_at) (LIVER, 100MMF-vs-Veh, 7 h): −1.95
FC Fzd8 (1445815_PM_at) (LIVER, 100MMF-vs-Veh, 7 h): −1.81
FC G6pdx (1448354_PM_at) (LIVER, 100MMF-vs-Veh, 7 h): 1.61
FC Marco (1449498_PM_at) (LIVER, 100MMF-vs-Veh, 7 h): 2.44
FC Nqo1 (1423627_PM_at) (LIVER, 100MMF-vs-Veh, 7 h): 2.20
FC Pir (1429001_PM_at) (LIVER, 100MMF-vs-Veh, 7 h): 1.50
FC Srxn1 (1419942_PM_at) (LIVER, 100MMF-vs-Veh, 7 h): 1.52
FC Srxn1 (1426875_PM_s_at) (LIVER, 100MMF-vs-Veh, 7 h): 1.53
FC Srxn1 (1451680_PM_at) (LIVER, 100MMF-vs-Veh, 7 h): 1.58
FC 1810055G02Rik (1425921_PM_a_at) (LIVER, 100MMF-vs-Veh, 12 h): 1.86
FC 4933433P14Rik (1431334_PM_a_at) (LIVER, 100MMF-vs-Veh, 12 h): 1.81
FC Ablim1 (1453103_PM_at) (LIVER, 100MMF-vs-Veh, 12 h): −1.51
FC Car3 (1460256_PM_at) (LIVER, 100MMF-vs-Veh, 12 h): −1.57
FC Clmn (1439117_PM_at) (LIVER, 100MMF-vs-Veh, 12 h): −1.54
FC Ctla2a (1448471_PM_a_at) (LIVER, 100MMF-vs-Veh, 12 h): 1.63
FC Dnajc12 (1417441_PM_at) (LIVER, 100MMF-vs-Veh, 12 h): 2.53
FC Fndc3b (1433833_PM_at) (LIVER, 100MMF-vs-Veh, 12 h): 1.66
FC Gadd45b (1450971_PM_at) (LIVER, 100MMF-vs-Veh, 12 h): 1.50
FC Gm3579 (1431214_PM_at) (LIVER, 100MMF-vs-Veh, 12 h): 2.74
FC Hyou1 (1423290_PM_at) (LIVER, 100MMF-vs-Veh, 12 h): 1.82
FC Hyou1 (1423291_PM_s_at) (LIVER, 100MMF-vs-Veh, 12 h): 1.52
FC Lrrc59 (1416235_PM_at) (LIVER, 100MMF-vs-Veh, 12 h): 1.65
FC Nme6 (1448574_PM_at) (LIVER, 100MMF-vs-Veh, 12 h): 1.57
FC Ppapdc1b (1428154_PM_s_at) (LIVER, 100MMF-vs-Veh, 12 h): 1.87
FC Ppm1k 1441988_PM_at (LIVER, 100MMF-vs-Veh, 12 h): −1.56
Number of genes, DMF Only / MMF Only (Liver): 34
Number of differentially expressed genes identified: Liver (2 h after last dosing): 23
Number of differentially expressed genes identified: Liver (7 h after last dosing): 15
Number of differentially expressed genes identified: Liver (12 h after last dosing): 16
Murine Liver DEGs: Abcc1 (1452233_PM_at) [1]: 1.86
Murine Liver DEGs: Akr1b8 (1448894_PM_at) [1]: 2.27
Murine Liver DEGs: Ampd3 (1422573_PM_at) [1]: 1.70
Murine Liver DEGs: Caprin1 (1448348_PM_at) [1]: −1.56
Murine Liver DEGs: Clec4d (1420804_PM_s_at) [1]: 2.05
Murine Liver DEGs: Cmah (1447019_PM_at) [1]: −1.55
Murine Liver DEGs: Csnk2a1 (1419038_PM_a_at) [1]: −1.62
Murine Liver DEGs: Figf (1438953_PM_at) [1]: 2.25
Murine Liver DEGs: Fxr1 (1452247_PM_at) [1]: −1.53
Murine Liver DEGs: Gclc (1424296_PM_at) [1]: 1.72
Murine Liver DEGs: Hmox1 (1448239_PM_at) [1]: 2.41
Murine Liver DEGs: Meis2 (1440091_PM_at) [1]: −1.67
Murine Liver DEGs: Mkln1 (1416734_PM_at) [1]: −1.69
Murine Liver DEGs: Pgd (1436771_PM_x_at) [1]: 1.61
Murine Liver DEGs: Ppfibp2 (1417801_PM_a_at) [1]: 2.55
Murine Liver DEGs: Prpf38b (1455016_PM_at) [1]: −1.53
Murine Liver DEGs: Ptprb (1453908_PM_at) [1]: −1.76
Murine Liver DEGs: Ptprg (1456070_PM_at) [1]: −1.85
